Where two headings read alike, the source gives them in different places.
How the values were obtained:
hCA IX [1] = settings: stopped-flow CO2 hydrase assay, mean of three assays; cited from earlier work
hCA II = settings: stopped-flow CO2 hydrase assay, mean of three assays; cited from earlier work
hCA I = settings: stopped-flow CO2 hydrase assay, mean of three assays; cited from earlier work
hCA XII [2] = settings: stopped-flow CO2 hydrase assay, mean of three assays; cited from earlier work
hCA IV = settings: stopped-flow CO2 hydrase assay, mean of three assays; cited from earlier work
hCA IX [3] = test: Stopped-flow CO2 hydrase inhibition assay, hCA IX; format: biochemical, human; settings: ratio of KIs
Protocol: (§1) An Applied Photophysics stopped-flow instrument (Applied Photophysics Ltd, Leatherhead, UK) was used for assaying the CA-catalyzed CO2 hydration activity. Phenol red (at a concentration of 0.2 mM) was used as an indicator, working at the absorbance maximum of 557 nm, with 20 mM Hepes (pH 7.5) as a buffer and 20 mM Na2SO4 for maintaining constant the ionic strength, following the initial rates of the CA-catalyzed CO2 hydration reaction for a period of 10−100 s. The CO2 concentrations ranged from 1.7 to 17 mM for the determination of the kinetic parameters and inhibition constants. For each inhibitor, at least six traces of the initial 5−10% of the reaction were used for determining the initial velocity. The uncatalyzed rates were determined in the same manner and subtracted from the total observed rates. Stock solutions of inhibitor (0.1 mM) were prepared in distilled−deionized water and dilutions up to 0.01 nM were made thereafter with the assay buffer. Inhibitor and enzyme solutions were preincubated together for 15 min at room temperature before the assay to allow for the formation of the E−I complex. The inhibition constants were obtained by nonlinear least-squares methods using Prism 7 (GraphPad Software, La Jolla, CA, USA) and the Cheng−Prusoff equation and represent the mean of at least three different determinations. The enzyme concentrations were in the range of 3–11 nM. All hCA isoforms were recombinant ones obtained in-house.

A549 [4] = test: MTT antiproliferative assay, A549; format: cell-based; settings: Homo sapiens, normoxic conditions, 72 h
Protocol: The human triple-negative breast cancer cell line (MDA-MB-231), colon cancer cell line (HCT-116), and lung cancer cell line (A549) used in this study were obtained from the American Type Culture Collection (ATCC). These cell lines were cultured as monolayers in Dulbecco’s Modified Eagle’s Medium (DMEM) supplemented with 10% FBS, 2 mM l-glutamine, 100 U/mL penicillin, and 100 µg/mL streptomycin sulfate. […] The cells were sub-cultured using trypsin/EDTA solution, counted with a hemocytometer, and plated on 96-well plates (5000 cells/well), allowing them to form a semi-confluent monolayer overnight. […]. DMSO (100 µL/well) was then added to dissolve the formazan crystals with shaking for 10 min, after which the absorb absorbance was read at 590 nm against no-cell blanks using a FLuo Star Optima microplate reader (BMG technologies, Ortenberg, Germany). Cell proliferation was calculated by comparing the OD values of the DMSO control wells with those of the samples, represented as % proliferation relative to the control.

HCT-116 [5] = test: MTT antiproliferative assay, HCT-116 (normoxia and CoCl2-induced hypoxia); format: cell-based, human; settings: HCT-116; for IC50: Homo sapiens, MTT, 72 h
Protocol: (§2) These cell lines were cultured as monolayers in Dulbecco’s Modified Eagle’s Medium (DMEM) supplemented with 10% FBS, 2 mM l-glutamine, 100 U/mL penicillin, and 100 µg/mL streptomycin sulfate. […] The cells were sub-cultured using trypsin/EDTA solution, counted with a hemocytometer, and plated on 96-well plates (5000 cells/well), allowing them to form a semi-confluent monolayer overnight. […] DMSO (100 µL/well) was then added to dissolve the formazan crystals with shaking for 10 min, after which the absorb absorbance was read at 590 nm against no-cell blanks using a FLuo Star Optima microplate reader (BMG technologies, Ortenberg, Germany). Cell proliferation was calculated by comparing the OD values of the DMSO control wells with those of the samples, represented as % proliferation relative to the control.

hCA XII [6] = test: Stopped-flow CO2 hydrase inhibition assay, hCA XII; format: biochemical, human; settings: ratio of KIs
Protocol: as §1

A549 [7] = test: Annexin V-FITC/PI dual staining apoptosis assay, A549; format: cell-based, human; settings: for Fold increase in overall apoptosis compared to untreated control: A549; for Early Apoptosis (Lower Right %) / Late Apoptosis (Upper Right %) / Total apoptosis: A549, treated at IC50 concentration
Protocol: (§3) Phosphatidylserine externalization was evaluated using the Annexin V-FITC/PI apoptosis detection kit (BD Biosciences, USA), following the manufacturer’s guidelines. […] Subsequently, the cells were re-suspended in 100 μL of binding buffer with the addition of 1 μL of FITC-Annexin V, followed by a 30-min incubation at 4 °C. After rinsing in binding buffer, the cells were resuspended in 150 μL of binding buffer with the addition of 1 μL of DAPI (1 μg/μL in PBS). Flow cytometry analysis was performed using the BD FACS Canto II flow cytometer and the results were interpreted with FlowJo7.6.4 software (Tree Star, Ashland, USA).

HCT-116 [8] = test: Cell cycle analysis by DNA flow cytometry, HCT-116; format: cell-based, human; settings: HCT-116, 24 h at IC50 concentration
Protocol: (§4) Following treatment, cells were washed twice with ice-cold phosphate-buffered saline (PBS). Subsequently, the treated cells were harvested through centrifugation, fixed in ice-cold 70% (v/v) ethanol, washed with PBS, re-suspended in 100 μg/mL RNase, stained with 40 μg/mL propidium iodide (PI), and subjected to flow cytometry analysis using FACS Calibur (Becton Dickinson, Franklin Lakes, NJ, USA). The cell cycle distributions were calculated using CellQuest software 5.1 (Becton Dickinson).

A549 [9] = test: Cell cycle analysis by DNA flow cytometry, A549; format: cell-based, human; settings: A549, 24 h at IC50 concentration
Protocol: as §4

MDA-MB-231 = test: MTT antiproliferative assay, MDA-MB-231; format: cell-based; settings: Homo sapiens, normoxic conditions, 72 h
Protocol: as §2

HCT-116 [10] = test: Annexin V-FITC/PI dual staining apoptosis assay, HCT-116; format: cell-based, human; settings: for Fold increase in overall apoptosis compared to untreated control: HCT-116; for Early Apoptosis (Lower Right %) / Late Apoptosis (Upper Right %) / Total apoptosis: HCT-116, treated at IC50 concentration
Protocol: as §3

[11] = compound 150 µM, rat liver homogenate, 37 °C; cited from earlier work
[12] = chemically induced hypoxia with CoCl2·6H2O, read-out: IC50 HCT-116 (Hypoxia)
[13] = normoxic conditions, read-out: IC50 HCT-116 (Normoxia)

NS(=O)(=O)c1ccc(CCN(Cc2ccccc2)C(=O)c2ccc(-c3cssc3=S)cc2)cc1 [Compound 19]
Ki (hCA IX [1]): 43 nM | Ki (hCA II): 480 nM | Ki (hCA I): 771 nM | Ki (hCA XII [2]): 9.7 nM | Ki (hCA IV): 4340 nM

NS(=O)(=O)c1ccc(CCN(Cc2ccc(F)cc2)C(=O)c2ccc(-c3cssc3=S)cc2)cc1 [Compound 20]
Ki (hCA IX [1]): 46.3 nM | Ki (hCA II): 600 nM | Ki (hCA I): 5320 nM | Ki (hCA XII [2]): 65.3 nM | Ki (hCA IV): > 10000 nM

NS(=O)(=O)c1ccc(CCN(Cc2ccc(Cl)cc2)C(=O)c2ccc(-c3cssc3=S)cc2)cc1 [Compound 21]
Ki (hCA IX [1]): 24 nM | Ki (hCA II): 2970 nM | Ki (hCA I): 5500 nM | Ki (hCA XII [2]): 9.8 nM | Ki (hCA IV): 430 nM

N#Cc1ccc(CN(CCc2ccc(S(N)(=O)=O)cc2)C(=O)c2ccc(-c3cssc3=S)cc2)cc1 [Compound 23]
hCA II/hCA IX selectivity ratio (hCA IX [3]): 120 | Ki (hCA IX [1]): 40.3 nM | IC50 (A549 [4]): 4530 ± 120 nM | IC50 Normoxia / IC50 Hypoxia (HCT-116 [5]): 0.3 | IC50 (HCT-116 [5]; [12]): 4270 ± 80 nM | IC50 (HCT-116 [5]; [13]): 1240 ± 40 nM | hCA II/hCA XII selectivity ratio (hCA XII [6]): 548 | Fold increase in overall apoptosis compared to untreated control (A549 [7]): 14.2 fold | Early Apoptosis (Lower Right %) (A549 [7]): 6.91% | Late Apoptosis (Upper Right %) (A549 [7]): 10.13% | Total apoptosis (A549 [7]): 17.04% | Ki (hCA II): 4830 nM | Ki (hCA I): > 10000 nM | %G0-G1 (HCT-116 [8]): 20.35% | %G2/M (HCT-116 [8]): 32.2% | %S (HCT-116 [8]): 23.29% | %Sub-G1 (HCT-116 [8]): 24.16% | Ki (hCA XII [2]): 8.8 nM | %G0-G1 (A549 [9]): 29.65% | %G2/M (A549 [9]): 28.09% | %S (A549 [9]): 26.28% | %Sub-G1 (A549 [9]): 15.98% | IC50 (MDA-MB-231): 1530 ± 40 nM | Fold increase in overall apoptosis compared to untreated control (HCT-116 [10]): 37.2 fold | Early Apoptosis (Lower Right %) (HCT-116 [10]): 7.69% | Late Apoptosis (Upper Right %) (HCT-116 [10]): 21.33% | Total apoptosis (HCT-116 [10]): 29.02%

CN(C)c1ccc(CN(CCc2ccc(S(N)(=O)=O)cc2)C(=O)c2ccc(-c3cssc3=S)cc2)cc1 [Compound 24]
Ki (hCA IX [1]): 22.7 nM | Ki (hCA II): 995 nM | Ki (hCA I): 4260 nM | Ki (hCA XII [2]): 9.5 nM | Ki (hCA IV): 3410 nM

NS(=O)(=O)c1ccc(CCN(Cc2ccc([N+](=O)[O-])cc2)C(=O)c2ccc(-c3cssc3=S)cc2)cc1 [Compound 25]
Ki (hCA IX [1]): 36.6 nM | Ki (hCA II): 919 nM | Ki (hCA I): 7450 nM | Ki (hCA XII [2]): 32.9 nM | Ki (hCA IV): > 10000 nM

COc1cc([N+](=O)[O-])ccc1CN(CCc1ccc(S(N)(=O)=O)cc1)C(=O)c1ccc(-c2cssc2=S)cc1 [Compound 26]
hCA II/hCA IX selectivity ratio (hCA IX [3]): 719 | Ki (hCA IX [1]): 4.1 nM | IC50 (A549 [4]): 7470 ± 310 nM | IC50 Normoxia / IC50 Hypoxia (HCT-116 [5]): 0.6 | IC50 (HCT-116 [5]; [12]): 3730 ± 70 nM | IC50 (HCT-116 [5]; [13]): 2300 ± 72 nM | hCA II/hCA XII selectivity ratio (hCA XII [6]): 383 | Fold increase in overall apoptosis compared to untreated control (A549 [7]): 13.1 fold | Early Apoptosis (Lower Right %) (A549 [7]): 6.47% | Late Apoptosis (Upper Right %) (A549 [7]): 9.3% | Total apoptosis (A549 [7]): 15.77% | Ki (hCA II): 2950 nM | Ki (hCA I): 6700 nM | %G0-G1 (HCT-116 [8]): 27.14% | %G2/M (HCT-116 [8]): 30.29% | %S (HCT-116 [8]): 24.13% | %Sub-G1 (HCT-116 [8]): 18.44% | Ki (hCA XII [2]): 7.7 nM | %G0-G1 (A549 [9]): 29.49% | %G2/M (A549 [9]): 33.05% | %S (A549 [9]): 22.54% | %Sub-G1 (A549 [9]): 14.92% | Ki (hCA IV): 4090 nM | IC50 (MDA-MB-231): 10400 ± 610 nM | H2S release half-life t/2 [11]: 4.9 min | Fold increase in overall apoptosis compared to untreated control (HCT-116 [10]): 24.5 fold | Early Apoptosis (Lower Right %) (HCT-116 [10]): 4.13% | Late Apoptosis (Upper Right %) (HCT-116 [10]): 14.96% | Total apoptosis (HCT-116 [10]): 19.09%

— publication PMC11432087, “Hydrogen Sulfide-Releasing Carbonic Anhydrase Inhibitors Effectively Suppress Cancer Cell Growth” (International Journal of Molecular Sciences, 2024)
